From article PMC3123436 (Bioorganic & medicinal chemistry, 2011) come the findings set out here.

The subject of one series is M. tuberculosis CDC1551. The series is described as follows: 96 well plate growth inhibition. The following applies: visual, 8–10 d.
The test system of series [1] is M. tuberculosis Erdman (control strain). The series is described as follows: 96 well plate growth inhibition.
For series [2], the system named is MSH biosynthesis in M. tuberculosis Erdman. Kind of series: MSH and GlcN-Ins levels in M. tuberculosis Erdman cultured 7 d with 2. The following applies: 20–75 μM 2, 7 d culture, two independent experiments.
The next series relates to M. tuberculosis Erdman. The series is described as follows: Inhibition of exponentially growing M. tuberculosis Erdman, 7 d flask culture.
The target in series [3] is recombinant M. tuberculosis MshC (Mycobacterium tuberculosis, UniProt P9WJM9). The series is classed as biochemical.
Chain of recombinant M. tuberculosis MshC (P9WJM9 whole entry, looked up): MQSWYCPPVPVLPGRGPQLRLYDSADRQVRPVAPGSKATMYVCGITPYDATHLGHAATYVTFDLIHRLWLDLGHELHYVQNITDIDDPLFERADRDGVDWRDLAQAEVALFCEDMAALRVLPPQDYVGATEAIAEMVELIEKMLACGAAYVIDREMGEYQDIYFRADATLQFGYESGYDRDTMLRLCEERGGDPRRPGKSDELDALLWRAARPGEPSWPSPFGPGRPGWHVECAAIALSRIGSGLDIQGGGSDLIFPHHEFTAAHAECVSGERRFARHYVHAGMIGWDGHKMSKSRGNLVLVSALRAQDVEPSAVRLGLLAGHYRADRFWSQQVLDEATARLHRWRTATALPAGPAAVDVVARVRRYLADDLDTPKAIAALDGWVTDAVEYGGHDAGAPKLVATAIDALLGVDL
The test system of a further series is Vero-E6 cells. Conditions: African green monkey, 2 d.

Values after ≈ are worked out from the molar mass of the structure shown. Where two headings read alike, the source gives them in different places.

In the case of `CN(CCCNC(=O)c1ccc2c(c1)N(Cc1cccc(Cl)c1)C(=O)c1ccccc1[S+]2[O-])C1CCCCC1` (stereo not shown) [Compound 2, N-[3-(cyclohexylmethylamino)propyl]-10-[(3-chlorophenyl)methyl]-10,11-dihydro-11-oxo-dibenzo-[b,f][1,4]-thiazepine-8-carboxamide-5-oxide], the results for the “MIC95 (95% inhibition)” value (in the series on M. tuberculosis CDC1551; in series [1]) were 110 µM (≈ 62.1 µg/mL) and 28 to 55 µM, respectively. Further, the “increase in the level of GlcN-Ins” value in series [2] was found to be 9 fold. Further, the “concentration at which inhibition of growth was apparent” value in the series on M. tuberculosis Erdman was 20 µM. Moreover, in the series with M. tuberculosis Erdman (50 or 75 μM, plating), the “viable cells relative to day 0 inoculum” value is “one-third”.
With `CN(CCCNC(=O)c1ccc2c(c1)N(Cc1cccc(Cl)c1)C(=O)c1ccccc1S2)C1CCCCC1` [Compound 5, 10-(3-Chlorobenzyl)-N-(3-(cyclohexyl(methyl)amino)-propyl)-11-oxo-10,11 dihydrodibenzo[b,f][1,4]thiazepine-8-carboxamide], in series [3] (SAR discussion), the “MshC inhibition, in words” value is “less active than their corresponding sulfoxides”.
Turning to `O=C(NCCCSC1CCCCC1)c1ccc2c(c1)N(Cc1cccc(Cl)c1)C(=O)c1ccccc1[S+]2[O-]` (stereo not shown) [Compound 6], the “MshC inhibition, in words” value in series [3] (SAR discussion) is reported as “complete loss of measurable activity”.
For the compound `CCCCSCCCNC(=O)c1ccc2c(c1)N(Cc1cccc(Cl)c1)C(=O)c1ccccc1[S+]2[O-]` (stereo not shown) [Compound 8], the “MshC inhibition, in words” value in series [3] was “complete loss of measurable activity”.
In the case of `CC1CC(C)CN(CCCNC(=O)c2ccc3c(c2)N(Cc2cccc(Cl)c2)C(=O)c2ccccc2[S+]3[O-])C1` (stereo not shown) [Compound 10], the “MshC inhibition, in words” value in series [3] is listed as “less effective”.
`CCC1CCCCN1CCCNC(=O)c1ccc2c(c1)N(Cc1cccc(Cl)c1)C(=O)c1ccccc1[S+]2[O-]` (stereo not shown) [Compound 12]: the “Vero Cell toxicity (MIC90)” value in the series with Vero-E6 cells came out at 100 µM.
Regarding `O=C(NCCCN1CCOCC1)c1ccc2c(c1)N(Cc1cccc(Cl)c1)C(=O)c1ccccc1[S+]2[O-]` (stereo not shown) [Compound 14], the “MshC inhibition, in words” value in series [3] was “similarly ineffective”.
Regarding `O=C(NCCCN1CCOCC1)c1ccc2c(c1)N(Cc1cccc(Cl)c1)C(=O)c1ccccc1S2` [Compound 15], the “MshC inhibition, in words” value in series [3] (SAR discussion) was “less active than their corresponding sulfoxides”.
As to `O=C(NCCCN1CCCC1)c1ccc2c(c1)N(Cc1cccc(Cl)c1)C(=O)c1ccccc1[S+]2[O-]` (stereo not shown) [Compound 17], the “MIC95 (95% inhibition)” value in the series on M. tuberculosis CDC1551 was 220 µM (≈ 115 µg/mL).
Take `O=C(NCCCN1CCCC1)c1ccc2c(c1)N(Cc1cccc(Cl)c1)C(=O)c1ccccc1S2` [Compound 18]: the “MshC inhibition, in words” value in series [3] (SAR discussion) is given as “less active than their corresponding sulfoxides”. Moreover, in the series on M. tuberculosis CDC1551, the “MIC95 (95% inhibition)” value was 110 µM (≈ 55.7 µg/mL).
Take `CC1CCCN(CCCNC(=O)c2ccc3c(c2)N(Cc2cccc(Cl)c2)C(=O)c2ccccc2[S+]3[O-])C1` (stereo not shown) [Compound 19]: the “Vero Cell toxicity (MIC90)” value with Vero-E6 cells was 100 µM.
Take `O=C(NCCN1CCCCCC1)c1ccc2c(c1)N(Cc1cccc(Cl)c1)C(=O)c1ccccc1[S+]2[O-]` (stereo not shown) [Compound 20]: in the series with Vero-E6 cells, the “Vero Cell toxicity (MIC90)” value was 100 µM. Also, the “MIC95 (95% inhibition)” value against M. tuberculosis CDC1551 turned out to be 110 µM (≈ 59 µg/mL).
On to `CC1CCCN(CCCNC(=O)c2ccc3c(c2)N(Cc2ccc(F)cc2)C(=O)c2ccccc2[S+]3[O-])C1` (stereo not shown) [Compound 35], for which the “fold less active than 3-chlorobenzyl derivative 19” value in series [3] is reported as 5 fold.
For the compound `CCCN(CCC)CCCNC(=O)c1ccc2c(c1)N(Cc1ccc(F)cc1)C(=O)c1ccccc1[S+]2[O-]` (stereo not shown) [Compound 36], the “fold loss in activity compared with 21” value in series [3] was 30 fold.
In the case of `CN(CCCNC(=O)c1ccc2c(c1)N(Cc1ccc(F)cc1)C(=O)c1ccccc1[S+]2[O-])C1CCCCC1` (stereo not shown) [Compound 37], the “fold increase of IC50 / loss in activity compared to 2” value in series [3] is reported as greater than 35 fold.
`Cc1ccc(CN2C(=O)c3ccccc3[S+]([O-])c3ccc(C(=O)NCCCN(C)C4CCCCC4)cc32)c(C)c1` (stereo not shown) [Compound 40]: in series [3] (SAR discussion), the “MshC inhibition, in words” value was “just detectable inhibition”.
For the compound `CCN(CC)CCCNC(=O)c1ccc2c(c1)N(Cc1ccc(C)cc1C)C(=O)c1ccccc1[S+]2[O-]` (stereo not shown) [Compound 41], in series [3] (SAR discussion), the “MshC inhibition, in words” value was “no measurable inhibition”.
Take `Cc1ccc(CN2C(=O)c3ccccc3S(=O)(=O)c3ccc(C(=O)NCCCN4CCCC4)cc32)c(C)c1` [Compound 42]: in series [3] (SAR discussion), the “MshC inhibition, in words” value is “just detectable inhibition”.
With `Cc1ccc(CN2C(=O)c3ccccc3S(=O)(=O)c3ccc(C(=O)NCCCN4CCOCC4)cc32)c(C)c1` [Compound 43], in series [3] (SAR discussion), the “MshC inhibition, in words” value is “no measurable inhibition”.
